# Assay results from US20190313942A1, “INGESTIBLE SYSTEM TO MONITOR GASTROINTESTINAL HEALTH IN SITU” (Massachusetts Institute of Technology, priority 2018, published 2019).
# B1: HrtR: heme-regulated TetR-family transcriptional repressor from Lactococcus lactis (protein)
# chain: MPKSTYFSLSDEKRKRVYDACLLEFQTHSFHEAKIMHIVKALDIPRGSFYQYFEDLKDSYYYILSQETVEIHDLFFNLLKEYPLEVALNKYKYLLLENLVNSPQYNLYKYRFLDWTYELERDWKPKGEVTVPARELDNPISQVLKSVIHNLVYRMFSENWDEQKFIETYDKEIKLLTEGLLNYVTESKK
# modifications: Heme-responsive transcriptional repressor
# notes: heme-regulated TetR-family transcriptional repressor from Lactococcus lactis
# How the values were obtained:
# [1] = test system: gastrointestinal bleeding; test: Guaiac test on fecal pellets after indomethacin; assay type: in vivo, C57BL/6J mice; conditions: 10 mg/kg oral, following morning
# Procedure: For indomethacin experiments, animals were inoculated with blood sensor bacteria and fecal pellets were collected 6 hours later for luminescence analysis and CFU enumeration. Indomethacin (Sigma) solution was prepared by dissolving the compound in absolute ethanol to a concentration of 20 mg/mL. Immediately prior to mouse gavage, the indomethacin stock solution was diluted to 1.25 mg/mL in PBS and 0.2 mL of dilute indomethacin solution was administered to each animal (10 mg/kg). Preparation of indomethacin solution using this method was essential to ensure reliable and reproducible induction of gastrointestinal bleeding. The following morning, gastrointestinal bleeding was confirmed by performing a guaiac test (Hemoccult, Beckman Coulter) on fecal pellets from each animal. […] Subsequently, mice were again administered blood sensor bacteria and fecal pellets were collected 6 hours later for luminescence analysis and CFU enumeration.
# PL(HrtO) = test: HrtR-mediated repression of PL(HrtO)-luxCDABE luminescence; assay type: cell-based, E. coli MG1655; conditions: co-transformation of PL(HrtO)-luxCDABE with constitutively expressing HrtR construct
# Procedure: For genetic circuit characterization, overnight cultures were diluted 1:100 in fresh LB and incubated with shaking at 37° C. for 2 hours. Cultures were removed from the incubator and 200 μL of culture was transferred to a 96-well plate containing various concentrations of inducer. The plate was returned to a shaking incubator at 37° C. Following 2 hours of incubation, luminescence was read using a BioTek Synergy H1 Hybrid Reader using a […] integration time and a sensitivity of 135. Luminescence values, measured in relative luminescence units (RLUs), were normalized by the optical density of the culture measured at 600 nm. For in vitro kinetic studies, subcultured cells were mixed with inducer in a 96-well plate and immediately placed in the plate reader set at 37° C. without shaking. Luminescence and absorbance was read at 5 minute intervals.
Molecule,guaiac test (gastrointestinal bleeding) [1],reduction in luminescence (PL(HrtO))
COc1ccc2c(c1)c(CC(=O)O)c(C)n2C(=O)c1ccc(Cl)cc1 [indomethacin],guaiac positive,–
B1,–,4.4 fold
